Laboratory results reported in ChEMBL document CHEMBL3046534, “QSAR modeling of the inhibition of reverse transcriptase enzyme with benzimidazolone analogs” (Med Chem Res, 2011).

Test system: Human immunodeficiency virus 1
Assay: Antiviral activity against Human immunodeficiency virus 1 infected human MT4 cells assessed as protection against virus-induced cytopathic effect
Assay type: functional, organism-based
Details: Human immunodeficiency virus 1, MT4

Row | SMILES | EC50 (read-out: EC50) [µM] | EC50 (read-out: pEC50 (converted)) [µM]
1 | Oc1nc2cc(Cl)ccc2n1Cc1c(F)cccc1F | 29.6 | 29.6
2 | O=c1oc2ccc(Cl)cc2n1Cc1c(F)cccc1F | 3.72 | 3.72
3 | CC(C)c1ccc(Cn2c(O)nc3ccc(Cl)cc32)cc1 | 2.83 | 2.83
4 | Oc1nc2ccc(Cl)cc2n1Cc1cccc2ccccc12 | 0.87 | 0.87
5 | O=c1[nH]c2ccc(Cl)cc2n1Cc1c(F)cccc1F | – | 0.534
